Assay results reported in patent US11084784B2, “ROR-gamma modulators and uses thereof” (PIRAMAL ENTERPRISES LIMITED, priority 2014, dated 2021).

Target: RORγt (Homo sapiens (Human), UniProt P51449)
Assay: RORγt luciferase reporter assay in CHO-K1 cells (RORgamma inhibitory activity)
Type: cell-based
Settings: CHO-K1 cells stably transfected with RORγt, transiently transfected with pFR Luc; 18-20 hours treatment; luminescence; read-out: In-vitro IC50 value IC50
Protocol: The representative compounds are referred to as the test compounds.
CHO-K1 cells stably transfected with RORγt are maintained in MEM-EBS with 5% FBS, 1% penicillin streptomycin solution and 1 mg/mL G418. The cells are seeded at a density of 200000 cells/mL in white 96 well flat bottom plate. Post 16-18 hours incubation, the cells are transiently transfected with pFR Luc (50 ng/well DNA) for four hours. The cells are then treated with different doses of the test compounds in MEM EBS media with 10% FBS and 1% penicillin streptomycin. DMSO is used as vehicle control. After 18-20 hours treatment, the cells are lysed with lysis buffer (40 mM HEPES, 20 mM EGTA, 50 mM β-glycerophosphate, 10% glycerol and 1% Triton X-100 in distilled water) for 0.5 hour and luminescence is read using Tecan Safire reader at 1000 milli second integration time.

RORγt, sequence (P51449 other isoform, or with tags, fused parts or gaps, species assumed): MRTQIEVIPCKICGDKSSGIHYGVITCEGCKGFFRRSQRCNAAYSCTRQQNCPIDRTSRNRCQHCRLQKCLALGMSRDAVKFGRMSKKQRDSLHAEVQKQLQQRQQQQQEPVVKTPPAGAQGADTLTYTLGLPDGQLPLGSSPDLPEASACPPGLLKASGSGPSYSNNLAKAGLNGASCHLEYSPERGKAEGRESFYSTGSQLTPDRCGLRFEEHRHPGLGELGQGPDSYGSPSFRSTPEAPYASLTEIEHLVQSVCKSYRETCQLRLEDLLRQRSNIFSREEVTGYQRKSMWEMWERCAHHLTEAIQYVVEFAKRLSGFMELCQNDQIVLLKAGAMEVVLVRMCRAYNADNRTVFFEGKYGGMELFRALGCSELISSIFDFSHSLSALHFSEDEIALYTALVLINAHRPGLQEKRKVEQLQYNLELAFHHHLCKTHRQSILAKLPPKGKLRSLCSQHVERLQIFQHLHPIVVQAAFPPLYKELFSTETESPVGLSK

Row | Structure (SMILES) | IC50
1 | CCS(=O)(=O)c1ccc(CC(=O)Nc2ccc(OC3CCCCC3)c(C(F)(F)F)c2)cc1 [Example 23, N-(4-(Cyclohexyloxy)-3-(trifluoromethyl)phenyl)-2-(4-(ethylsulfonyl)phenyl)acetamide] | 50 to 100 nM
2 | CCS(=O)(=O)c1ccc(CC(=O)Nc2ccc3c(c2)CCCC3(O)c2ccc(OC)cc2)cc1 (centres unmarked) [Example 43, 2-(4-(Ethylsulfonyl)phenyl)-N-(5-hydroxy-5-(4-methoxyphenyl)-5,6,7,8-tetrahydronaphthalen-2-yl)acetamide] | 0.01 to 50 nM
3 | CCS(=O)(=O)c1ccc(CC(=O)Nc2ccc(C3CCCCC3)cc2)cc1 [Example 25, N-(4-Cyclohexylphenyl)-2-(4-(ethylsulfonyl)phenyl)acetamide] | 0.01 to 50 nM
4 | CCS(=O)(=O)c1ccc(CC(=O)Nc2ccc(C3=CCC(O)CC3)c(C(F)(F)F)c2)cc1 (centres unmarked) [Example 34, 2-(4-(Ethylsulfonyl)phenyl)-N-(4′-hydroxy-2-(trifluoromethyl)-2′,3′,4′,5′-tetrahydro-[1,1′-biphenyl]-4-yl)acetamide] | 0.01 to 50 nM
5 | CCS(=O)(=O)c1ccc(CC(=O)Nc2ccc(C3=CCC(=O)CC3)c(C(F)(F)F)c2)cc1 [Example 24, 2-(4-(Ethylsulfonyl)phenyl)-N-(4′-oxo-2-(trifluoromethyl)-2′,3′,4′,5′-tetrahydro-[1,1′-biphenyl]-4-yl)acetamide] | 0.01 to 50 nM
